Results on 14 compounds are retold here after ChEMBL document CHEMBL3232853, “Alkylsulfone-containing trisubstituted cyclohexanes as potent and bioavailable chemokine receptor 2 (CCR2) antagonists” (Bioorg Med Chem Lett, 2014).

Each structure is given as a SMILES string. Calls of active or inactive are those of the source. The calls are words filed in the database; no cut-off is given here.

Data set [1] deals with C-C chemokine receptor type 2 (Homo sapiens, UniProt P41597). The experiment in a line: Displacement of [125I]-labeled human MCP1 from CCR2 in human PBMC.
The nature of data set [2]: Permeability across apical to basolateral side in human Caco2 cells. Conditions: Caco-2, read-out: permeability. The format is ADME, cell-based.
The species named for data set [3] is Rattus norvegicus. Nature of the data set: Inhibition of rat sodium channel site 2 at 10 uM relative to control.
The test system of a further data set is Liver microsome. Conditions: human, microsomes, 10 min.
The species named for another data set is Homo sapiens. Nature of the data set: Inhibition of sodium channel (unknown origin) at 10 uM at 4 Hz by patch clamp assay relative to control.
Data set [4] addresses Voltage-gated inwardly rectifying potassium channel KCNH2 (Homo sapiens, UniProt Q12809). The experiment in a line: Inhibition of human ERG by FLIPR assay.
Data set [5] has as its system Rattus norvegicus. The experiment in a line: Oral bioavailability in rat at 72 mg/kg. The data set is classed as ADME, organism-based. Conditions: in vivo.
Data set [6] concerns Mus musculus. The experiment in a line: Antiinflammatory activity in thioglycollate-induced human CCR2 knock-in mouse peritonitis model assessed as reduction of Ly6C+F4/80+ cell numbers in peripheral blood at 50 mg/kg, po administered 1 hr prior to thioglycollate challenge measured after 6 hrs. The format is functional, organism-based. Also on record: dose 50 mg/kg.
The nature of data set [7]: Clearance in cynomolgus monkey at 1 mg/kg, iv. The format is ADME, organism-based, Macaca fascicularis. Also on record: dose 1 mg/kg, route intravenous. Conditions: in vivo.
Data set [8] in a line: Clearance in rat at 6 mg/kg, iv. The data set is classed as ADME, organism-based. Set-up: dose 6 mg/kg, route intravenous. Conditions: in vivo.
Data set [9] can be described thus: Clearance in dog at 1 mg/kg, iv. The data set is classed as ADME, organism-based, Canis lupus familiaris. Also on record: dose 1 mg/kg, route intravenous. Conditions: in vivo.
Data set [10] deals with Mus musculus. The experiment in a line: Oral bioavailability in mouse at 54 mg/kg. The data set is classed as ADME, organism-based. Conditions: in vivo.
Data set [11] is described as follows: Clearance in mouse at 3 mg/kg, iv. Also on record: dose 3 mg/kg, route intravenous. Conditions: in vivo. The format is ADME, organism-based.
In data set [12] the test system is Canis familiaris. Nature of the data set: Oral bioavailability in dog at 14 mg/kg. The data set is classed as ADME, organism-based, Canis lupus familiaris. Conditions: in vivo.
In data set [13] the test system is Mus musculus. The experiment in a line: Antiinflammatory activity in thioglycollate-induced human CCR2 knock-in mouse peritonitis model assessed as reduction of Ly6C+F4/80+ cell numbers in peritoneal cavity at 50 mg/kg, po administered 1 hr prior to thioglycollate challenge measured after 6 hrs. The data set is classed as functional, organism-based. Also on record: dose 50 mg/kg.

The subject of data set [14] is Cynomolgus monkey. Nature of the data set: Oral bioavailability in cynomolgus monkey at 14 mg/kg. Conditions: in vivo. The format is ADME, organism-based, Macaca fascicularis.
The species entered for data set [15] is Mus musculus. The experiment in a line: Antiinflammatory activity in thioglycollate-induced wild type mouse peritonitis model. The format is functional, organism-based.
Data set [16] in a line: Clearance in mouse at 5 mg/kg, iv. Conditions: in vivo. The format is ADME, organism-based. Also on record: dose 5 mg/kg, route intravenous.
The test system of data set [17] is Rattus norvegicus. Nature of the data set: Oral bioavailability in rat at 43 mg/kg. Conditions: in vivo. The data set is classed as ADME, organism-based.
Data set [18] has as its system Canis familiaris. The experiment in a line: Oral bioavailability in dog at 10 mg/kg. Conditions: in vivo. The format is ADME, organism-based, Canis lupus familiaris.
Data set [19] relates to Mus musculus. The experiment in a line: Oral bioavailability in mouse at 100 mg/kg. Conditions: in vivo. The data set is classed as ADME, organism-based.
Data set [20] has as its system Cynomolgus monkey. Nature of the data set: Oral bioavailability in cynomolgus monkey at 10 mg/kg. The format is ADME, organism-based, Macaca fascicularis. Conditions: in vivo.
The nature of data set [21]: Clearance in rat at 4 mg/kg, iv. The format is ADME, organism-based. Also on record: dose 4 mg/kg, route intravenous. Conditions: in vivo.
For data set [22], the system named is Mus musculus. The experiment in a line: Antiinflammatory activity in thioglycollate-induced human CCR2 knock-in mouse peritonitis model assessed as reduction of Ly6C+F4/80+ cell numbers in peripheral blood at 100 mg/kg, po administered 1 hr prior to thioglycollate challenge measured after 6 hrs. The data set is classed as functional, organism-based. Set-up: dose 100 mg/kg.

In data set [23] the test system is Mus musculus. Nature of the data set: Antiinflammatory activity in thioglycollate-induced human CCR2 knock-in mouse peritonitis model assessed as reduction of Ly6C+F4/80+ cell number peritoneal cavity at 100 mg/kg, po administered 1 hr prior to thioglycollate challenge measured after 6 hrs. Also on record: dose 100 mg/kg. The format is functional, organism-based.

Data set [24] can be described thus: Antagonist activity at CCR2 in human monocytes assessed as reduction of chemotaxis in presence of […].

C-C chemokine receptor type 2, sequence (P41597 whole entry): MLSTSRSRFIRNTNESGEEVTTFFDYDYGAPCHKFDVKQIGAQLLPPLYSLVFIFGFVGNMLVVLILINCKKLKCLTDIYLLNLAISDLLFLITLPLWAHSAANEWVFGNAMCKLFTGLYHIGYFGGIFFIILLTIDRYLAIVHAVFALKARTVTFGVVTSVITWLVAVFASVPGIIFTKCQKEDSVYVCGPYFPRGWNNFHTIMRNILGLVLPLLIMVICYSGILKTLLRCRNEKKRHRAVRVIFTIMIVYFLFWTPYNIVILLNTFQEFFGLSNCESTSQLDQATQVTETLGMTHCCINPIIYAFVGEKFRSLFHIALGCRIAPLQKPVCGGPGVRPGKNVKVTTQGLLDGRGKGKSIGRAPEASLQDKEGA
Voltage-gated inwardly rectifying potassium channel KCNH2, sequence (Q12809 whole entry): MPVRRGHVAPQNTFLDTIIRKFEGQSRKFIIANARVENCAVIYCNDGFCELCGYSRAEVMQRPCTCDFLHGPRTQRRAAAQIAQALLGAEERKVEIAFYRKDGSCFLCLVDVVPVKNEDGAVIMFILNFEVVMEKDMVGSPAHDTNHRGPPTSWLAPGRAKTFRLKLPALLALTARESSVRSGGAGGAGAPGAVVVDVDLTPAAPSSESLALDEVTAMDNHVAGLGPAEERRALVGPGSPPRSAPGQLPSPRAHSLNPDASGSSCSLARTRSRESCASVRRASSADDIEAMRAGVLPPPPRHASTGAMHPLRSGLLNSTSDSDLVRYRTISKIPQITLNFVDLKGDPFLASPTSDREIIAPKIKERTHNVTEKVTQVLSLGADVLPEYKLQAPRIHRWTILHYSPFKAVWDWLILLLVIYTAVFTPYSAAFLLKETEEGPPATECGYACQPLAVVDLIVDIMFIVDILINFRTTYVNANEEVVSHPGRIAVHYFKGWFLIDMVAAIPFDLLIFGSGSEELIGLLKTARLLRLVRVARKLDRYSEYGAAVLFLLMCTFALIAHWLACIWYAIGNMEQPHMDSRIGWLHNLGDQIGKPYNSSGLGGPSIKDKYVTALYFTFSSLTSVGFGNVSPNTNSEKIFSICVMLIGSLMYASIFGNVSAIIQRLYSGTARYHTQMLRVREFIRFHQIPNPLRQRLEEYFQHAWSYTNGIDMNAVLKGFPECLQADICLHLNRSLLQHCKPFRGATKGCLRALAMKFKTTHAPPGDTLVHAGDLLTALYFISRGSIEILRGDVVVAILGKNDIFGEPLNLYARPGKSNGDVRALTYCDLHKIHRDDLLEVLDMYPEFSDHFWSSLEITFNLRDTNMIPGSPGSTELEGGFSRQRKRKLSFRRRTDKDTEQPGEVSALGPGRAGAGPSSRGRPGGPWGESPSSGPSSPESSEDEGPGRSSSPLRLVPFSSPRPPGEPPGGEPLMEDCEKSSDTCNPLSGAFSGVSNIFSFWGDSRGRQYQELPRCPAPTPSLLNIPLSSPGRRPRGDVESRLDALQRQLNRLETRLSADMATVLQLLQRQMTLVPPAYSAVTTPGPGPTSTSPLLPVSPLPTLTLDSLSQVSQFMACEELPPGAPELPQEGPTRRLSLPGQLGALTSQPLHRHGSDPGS
Description for Liver microsome: Metabolic stability in human liver microsomes assessed as compound remaining after 10 mins

As to `CC(C)N(C)[C@@H]1CC[C@H](N2CC[C@H](NC(=O)c3cccc(C(C)(C)C)c3)C2=O)[C@H](CS(C)(=O)=O)C1`, in data set [1], the IC50 was 1.2 nM.

`CCS(=O)(=O)C[C@@H]1C[C@H](N(C)C(C)C)CC[C@@H]1N1CC[C@H](NC(=O)c2cccc(C(F)(F)F)c2)C1=O` returned an IC50 in data set [1] of 1.2 nM. The Papp A→B in [2] is < 1.5 ×10⁻⁶ cm/s. For the same compound, the values for the inhibition in the data set filed under Rattus norvegicus [3] and in the data set filed under Homo sapiens were 26% and 4.2%, respectively. In the data set on Liver microsome, this compound had a Stability of 100%.

On to `CC(C)N(C)[C@@H]1CC[C@H](N2CC[C@H](NC(=O)c3cccc(OC(F)(F)F)c3)C2=O)[C@H](CS(=O)(=O)C(C)(C)C)C1`, for which the half-maximal inhibitory concentration (IC50) in data set [1] was 1.2 nM; in data set [4], > 80000 nM. The compound also displayed an inhibition in the data set filed under Rattus norvegicus [3] of 61%.

As for `CC(C)N(C)[C@@H]1CC[C@H](N2CC[C@H](NC(=O)c3cc(F)cc(C(F)(F)F)c3)C2=O)[C@H](CS(=O)(=O)C(C)(C)C)C1`, the IC50 in [1] was 1.3 nM; in data set [4], > 80000 nM. In the data set listed under Rattus norvegicus [3], this compound gave an inhibition of 48%.

In data set [1], `CC(C)N(C)[C@@H]1CC[C@H](N2CC[C@H](NC(=O)c3cccc(C(C)(C)C)n3)C2=O)[C@H](CS(C)(=O)=O)C1` displayed an IC50 of 0.7 nM. The same compound came in with an inhibition in the data set listed under Rattus norvegicus [3] of 46%.

In the case of `CC(C)N(C)[C@@H]1CC[C@H](N2CC[C@H](NC(=O)c3cccc(C(F)(F)F)c3)C2=O)[C@H](CS(C)(=O)=O)C1`, in data set [1], the IC50 came out at 1.8 nM. The F in the data set with Rattus norvegicus [5] is 1%; in the data set on Mus musculus [10], 16%; in the data set with Canis familiaris [12], 51%; in the data set on Cynomolgus monkey [14], 9%. Further, the Papp A→B in data set [2] was < 1.5 ×10⁻⁶ cm/s. In addition, the outcome in the data set on Mus musculus [6] and with Mus musculus [13] was Active. The clearance in data set [7] amounted to 14 mL/min/kg; in [8] it was 42 mL/min/kg; in [9] it was 3 mL/min/kg; in data set [11] it was 70 mL/min/kg. In addition, the inhibition in the data set listed under Rattus norvegicus [3] was 3%; in the data set filed under Homo sapiens, 22%. This compound also gave a Stability with Liver microsome of 100%.

Consider `CC(C)N(C)[C@@H]1CC[C@H](N2CC[C@H](NC(=O)c3cccc(C(F)(F)F)n3)C2=O)[C@H](CS(C)(=O)=O)C1`, for which the half-maximal inhibitory concentration (IC50) in [1] is 2.2 nM; in data set [4] it was > 80000 nM. Moreover, the inhibition in the data set filed under Rattus norvegicus [3] came to 0%.

Turning to `CCS(=O)(=O)C[C@@H]1C[C@H](N(C)C(C)C)CC[C@@H]1N1CC[C@H](NC(=O)c2cccc(-c3ccccc3)c2)C1=O`, the figures for the IC50 in data set [1] and in data set [4] were 1.1 nM and 60000 nM, respectively.

The compound `CC(C)N(C)[C@@H]1CC[C@H](N2CC[C@H](NC(=O)c3cccc(OC(F)(F)F)c3)C2=O)[C@H](CS(C)(=O)=O)C1` yielded a half-maximal inhibitory concentration (IC50) in data set [1] of 5 nM. In the data set filed under Rattus norvegicus [3], this compound registered an inhibition of 32%.

Regarding `CC(C)N(C)[C@@H]1CC[C@H](N2CC[C@H](NC(=O)c3cccc(C(F)(F)F)c3)C2=O)[C@H](CS(=O)(=O)C(C)(C)C)C1`, the IC50 in data set [1] came to 0.96 nM. In addition, in the data set listed under Mus musculus [15], the outcome was inactive. Moreover, the Papp A→B in [2] stood at 3 ×10⁻⁶ cm/s. The clearance in [7] came out at 12 mL/min/kg; in data set [16] it was 25 mL/min/kg; in [9], 5 mL/min/kg; in data set [21] it was 54 mL/min/kg. The F with Rattus norvegicus [17] was determined as 14%; in the data set with Canis familiaris [18], 74%; in the data set with Mus musculus [19], 13%; in the data set on Cynomolgus monkey [20], 26%. Also, the inhibition in the data set filed under Rattus norvegicus [3] turned out to be 48%; in the data set listed under Homo sapiens, 19%. This compound registered a Stability in the data set on Liver microsome of 100%. Moreover, the result in the data set with Mus musculus [22] and in the data set with Mus musculus [23] was Active.

On to `Cc1ccc(C(=O)N[C@H]2CCN([C@H]3CC[C@@H](N(C)C(C)C)C[C@H]3CS(C)(=O)=O)C2=O)cc1C(F)(F)F`, for which, in data set [1], the concentration for half-maximal inhibition (IC50) worked out at 5.2 nM. The inhibition in the data set filed under Rattus norvegicus [3] amounted to 36%.

For the compound `CC(C)N(C)[C@@H]1CC[C@H](N2CC[C@H](NC(=O)c3cccc(C(C)(C)C)c3)C2=O)[C@H](CS(=O)(=O)C(C)C)C1`, the half-maximal inhibitory concentration (IC50) in data set [1] turned out to be 0.5 nM.

As for `CC(C)N(C)[C@@H]1CC[C@H](N2CC[C@H](NC(=O)c3cccc(C(F)(F)F)c3)C2=O)[C@H](CS(=O)(=O)c2ccccc2)C1`, the IC50 in data set [24] turned out to be 0.5 nM. Further, the Papp A→B in [2] is < 1.5 ×10⁻⁶ cm/s. Moreover, the Stability with Liver microsome was found to be 88%.

With `CC(C)N(C)[C@@H]1CC[C@H](N2CC[C@H](NC(=O)c3cccc(C(F)(F)F)c3)C2=O)[C@H](CS(=O)(=O)C(C)C)C1`, the IC50 in data set [1] came to 0.34 nM. For the same compound, the Papp A→B in data set [2] is < 1.5 ×10⁻⁶ cm/s. The compound further registered a Stability with Liver microsome of 100%.
